Laboratory results as given in patent US20250066337A1, “Amorphous Form of (S)-2-(5-((3-Ethoxypyridin-2-YL)Oxy)Pyridin-3-YL)-N-(Tetrahydrofuran-3-YL)Pyrimidine-5-Carboxamide” (Pfizer Inc., priority 2021, published 2025).

Target: hDGAT2 (Homo sapiens (Human), UniProt Q96PD7)
Test: In vitro DGAT2 assay, determination of IC50 values
Assay type: biochemical
Details: geometric mean; hDGAT2 membrane fraction, [1-14C]decanoyl-CoA and 1,2-didecanoyl-sn-glycerol substrates
Procedure: For the expression of hDGAT2, SF9 cells (20 L) grown in Sf900II media were infected with hDGAT2 baculovirus at a multiplicity of infection of 1 in a Wave Bioreactor System 20/50P wave bag (GE Healthcare). After 40 hours of infection, the cells were then harvested by centrifugation at 5,000×g. The cell pellets were washed by resuspending in phosphate buffered saline (PBS) and collected by centrifugation at 5,000×g. The cell paste was flash frozen in liquid N2 and stored at −80° C. until needed. All operations below were at 4° C. unless otherwise noted. The cells were resuspended in lysis buffer (50 mM Tris-HCl, pH 8.0, 250 mM sucrose) including 1 mM ethylenediaminetetraacetic acid (EDTA) and the complete protease inhibitor cocktail (Roche Diagnostics) at a ratio of 3 ml buffer per 1 g cell paste. The cells were lysed by dounce homogenizer. The cell debris was removed by centrifugation at 1,000×g for 20 min, and the supernatant was centrifuged at 100,000×g for 1 hour. […]
For determination of IC50 values, the reactions were carried out in 384-well white Polyplates (Perkin Elmer) in a total volume of 20 μL. […] Plates were centrifuged at 2,000×g for 1 minute in an Allegra 6R Centrifuge (Beckman Coulter) and then were sealed again with fresh covers before reading in a 1450 Microbeta Wallac Trilux Scintillation Counter (Perkin Elmer).

Chain of hDGAT2 (Q96PD7 whole entry): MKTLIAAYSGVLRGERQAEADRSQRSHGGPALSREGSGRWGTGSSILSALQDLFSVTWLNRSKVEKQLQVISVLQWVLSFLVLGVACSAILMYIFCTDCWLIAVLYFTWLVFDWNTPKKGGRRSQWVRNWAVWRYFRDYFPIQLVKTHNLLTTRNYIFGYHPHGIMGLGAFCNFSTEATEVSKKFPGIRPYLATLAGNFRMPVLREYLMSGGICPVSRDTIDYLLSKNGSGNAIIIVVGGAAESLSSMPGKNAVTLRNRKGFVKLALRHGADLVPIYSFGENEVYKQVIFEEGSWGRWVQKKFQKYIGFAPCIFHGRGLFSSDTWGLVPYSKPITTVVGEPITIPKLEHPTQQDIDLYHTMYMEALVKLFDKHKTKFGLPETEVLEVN

## CCOc1cccnc1Oc1cncc(-c2ncc(C(=O)N[C@H]3CCOC3)cn2)c1 [Example 1, (S)-2-(5-((3-ethoxypyridin-2-yl)oxy)pyridin-3-yl)-N-(tetrahydrofuran-3-yl)pyrimidine-5-carboxamide]
  IC50: 17.2 nM
